Data reported in the supplement of paper PMC10733146.

Experiments:
Assay in all cases: viability relative to DMSO control (fraction); higher = less drug effect (more viable cells)
Conditions in all cases: 48 h
ERK5-IN-1 = compound: CCOc1cc(C(=O)N2CCC(N3CCN(C)CC3)CC2)ccc1Nc1ncc2c(n1)N(C1CCCC1)c1ccccc1C(=O)N2C [ERK5-IN-1]
How it was run: (§1)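 The cells were primary mononuclear tumour cells, either fresh or cryopreserved, isolated by Ficoll from blood or bone marrow or derived from processed lymph node. Each well of a 384-well plate received 4 × 10^4 cells onto compounds pre-plated at five concentrations, with one well per concentration. The medium was RPMI-1640 with penicillin/streptomycin, L-glutamine and human serum, and plates stood at 37 °C and 5% CO2 for 48 h. Viability is reported as CellTiter-Glo luminescence relative to the median of 16 inner DMSO wells.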

Rigosertib = compound: COc1cc(OC)c(/C=C/S(=O)(=O)Cc2ccc(OC)c(NCC(=O)O)c2)c(OC)c1 [Rigosertib]
How it was run: as §1

BEZ235 = compound: Cn1c(=O)n(-c2ccc(C(C)(C)C#N)cc2)c2c3cc(-c4cnc5ccccc5c4)ccc3ncc21 [BEZ235]
How it was run: as §1

Vorinostat = compound: O=C(CCCCCCC(=O)Nc1ccccc1)NO [Vorinostat]
How it was run: as §1

| Test System | viability (ERK5-IN-1; 0.024 µM) | viability (ERK5-IN-1; 0.12 µM) | viability (ERK5-IN-1; 0.6 µM) | viability (ERK5-IN-1; 3 µM) | viability (ERK5-IN-1; 15 µM) | viability (Rigosertib; 0.008 µM) | viability (Rigosertib; 0.04 µM) | viability (Rigosertib; 0.2 µM) | viability (Rigosertib; 1 µM) | viability (Rigosertib; 5 µM) | viability (BEZ235; 0.024 µM) | viability (BEZ235; 0.12 µM) | viability (BEZ235; 0.6 µM) | viability (BEZ235; 3 µM) | viability (BEZ235; 15 µM) | viability (Vorinostat; 0.016 µM) | viability (Vorinostat; 0.08 µM) | viability (Vorinostat; 0.4 µM) | viability (Vorinostat; 2 µM) | viability (Vorinostat; 10 µM) |
| --- | --- | --- | --- | --- | --- | --- | --- | --- | --- | --- | --- | --- | --- | --- | --- | --- | --- | --- | --- | --- |
| primary AML patient cells (S025) | 0.907 | 0.963 | 0.864 | 0.617 | 0.212 | 0.947 | 0.892 | 0.958 | 0.83 | 0.837 | 0.918 | 1.04 | 0.891 | 1 | 0.594 | 0.995 | 0.978 | 0.817 | 0.485 | 0.382 |
| primary AML patient cells (S011) | 0.93 | 0.778 | 0.663 | 0.445 | 0.152 | 0.954 | 1.03 | 1 | 0.841 | 0.699 | 0.826 | 0.94 | 0.597 | 0.85 | 0.259 | 1.08 | 0.942 | 0.554 | 0.353 | 0.326 |
| primary AML patient cells (S081) | 0.876 | 0.866 | 0.765 | 0.551 | 0.182 | 0.968 | 0.925 | 0.973 | 0.964 | 0.775 | 0.966 | 1.05 | 0.956 | 1.04 | 0.711 | 1.15 | 1.02 | 0.894 | 0.388 | 0.0494 |
| primary AML patient cells (S060) | 1.01 | 0.981 | 0.987 | 0.769 | 0.239 | 0.918 | 0.95 | 0.975 | 0.928 | 0.87 | 0.941 | 1.05 | 0.93 | 1.03 | 0.794 | 1.04 | 1.09 | 1.02 | 0.389 | 0.0514 |
| primary T-PLL patient cells (S008) | 0.932 | 0.957 | 0.985 | 0.958 | 0.754 | 1.07 | 1.02 | 1.07 | 0.991 | 0.98 | 0.969 | 0.967 | 0.927 | 0.941 | 0.308 | 1.01 | 0.989 | 1.07 | 0.984 | 0.851 |
| primary DLBCL patient cells (S082) | 0.854 | 0.818 | 0.621 | 0.265 | 0.224 | 0.954 | 0.973 | 0.931 | 0.771 | 0.524 | 0.931 | 1.05 | 0.958 | 1.07 | 0.737 | 1.01 | 0.914 | 0.636 | 0.0663 | 0.0248 |
| primary ALL patient cells (S088) | 0.841 | 0.851 | 0.472 | 0.39 | 0.114 | 0.756 | 0.78 | 0.778 | 0.806 | 0.461 | 0.751 | 0.644 | 0.529 | 0.427 | 0.254 | 0.991 | 0.777 | 0.366 | 0.157 | 0.109 |
| primary AML patient cells (S055) | 0.929 | 0.945 | 0.914 | 0.818 | 0.615 | 0.972 | 1.02 | 0.96 | 0.996 | 0.975 | 0.958 | 0.743 | 0.584 | 0.642 | 0.562 | 1.05 | 1.04 | 0.929 | 0.586 | 0.118 |
| primary FL patient cells (S022) | 1.02 | 0.957 | 0.902 | 0.951 | 0.544 | 1.02 | 0.951 | 1.02 | 0.919 | 0.865 | 0.885 | 0.977 | 0.887 | 0.827 | 0.153 | 0.992 | 0.932 | 0.874 | 0.795 | 0.26 |
| primary AML patient cells (S091) | 0.879 | 0.677 | 0.783 | 0.569 | 0.268 | 0.971 | 1.06 | 0.961 | 0.899 | 1.05 | 0.873 | 0.58 | 0.328 | 0.224 | 0.143 | 0.996 | 0.821 | 0.525 | 0.185 | 0.147 |
| primary AML patient cells (S017) | 0.981 | 0.898 | 0.896 | 0.523 | 0.161 | 0.988 | 0.968 | 0.945 | 0.949 | 0.954 | 0.948 | 1.02 | 0.919 | 0.969 | 0.604 | 1.03 | 0.989 | 0.825 | 0.226 | 0.141 |
| primary BL patient cells (S005) | 1.07 | 1.09 | 1 | 0.89 | 0.631 | 0.955 | 0.94 | 0.95 | 0.89 | 0.906 | 1.28 | 0.972 | 1.12 | 0.756 | 0.544 | 0.977 | 0.869 | 0.863 | 0.595 | 0.689 |
| primary AML patient cells (S021) | 0.877 | 0.864 | 0.814 | 0.706 | 0.249 | 0.928 | 1.02 | 0.927 | 0.996 | 0.857 | 0.806 | 0.919 | 0.839 | 0.943 | 0.51 | 0.918 | 0.859 | 0.626 | 0.404 | 0.304 |
| primary ALL patient cells (S048) | 0.657 | 0.69 | 0.397 | 0.241 | 0.0525 | 0.879 | 0.925 | 0.84 | 0.712 | 0.314 | 0.858 | 0.846 | 0.618 | 0.552 | 0.269 | 0.927 | 0.723 | 0.261 | 0.097 | 0.0745 |
| primary MCL patient cells (S041) | 1.04 | 0.955 | 0.907 | 0.771 | 0.564 | 0.999 | 1.01 | 0.993 | 1 | 0.668 | 0.89 | 0.963 | 0.85 | 0.847 | 0.322 | 1.01 | 0.983 | 0.796 | 0.272 | 0.152 |
| primary AML patient cells (S002) | 1.19 | 1.07 | 0.733 | 0.421 | 0.276 | 0.949 | 0.952 | 0.943 | 0.803 | 1.02 | 0.979 | 0.963 | 0.868 | 0.853 | 0.409 | 1.08 | 0.947 | 0.663 | 0.291 | 0.24 |
| primary AML patient cells (S037) | 0.961 | 0.87 | 0.751 | 0.541 | 0.43 | 0.937 | 1 | 0.954 | 0.966 | 0.845 | 0.931 | 1.07 | 0.933 | 1.02 | 0.745 | 1.21 | 0.988 | 0.703 | 0.469 | 0.52 |
| primary B-PLL patient cells (S016) | 1.03 | 0.97 | 1.02 | 0.853 | 0.548 | 0.976 | 1.04 | 0.948 | 0.961 | 0.455 | 0.837 | 0.867 | 0.774 | 0.865 | 0.387 | 0.995 | 0.87 | 0.578 | 0.169 | 0.0399 |
| primary AML patient cells (S085) | 0.842 | 0.767 | 0.524 | 0.189 | 0.0801 | 1.05 | 1.1 | 0.68 | 0.394 | 0.3 | 0.855 | 0.695 | 0.588 | 0.628 | 0.308 | 0.979 | 1.05 | 0.448 | 0.11 | 0.0646 |
| primary CLL patient cells (S031) | 0.949 | 0.925 | 0.839 | 0.651 | 0.223 | 1.01 | 0.997 | 1.03 | 0.945 | 0.297 | 0.859 | 0.812 | 0.727 | 0.562 | 0.132 | 0.963 | 0.995 | 0.879 | 0.197 | 0.0346 |
| primary AML patient cells (S089) | 0.71 | 0.826 | 0.564 | 0.753 | 0.278 | 0.983 | 0.862 | 0.498 | 0.716 | 0.686 | 1.11 | 1.14 | 0.84 | 0.511 | 0.431 | 0.939 | 0.983 | 0.62 | 0.262 | 0.0558 |
| primary MCL patient cells (S063) | 1.04 | 0.967 | 1 | 0.702 | 0.279 | 0.919 | 1.06 | 0.885 | 0.969 | 0.521 | 0.934 | 1.11 | 0.907 | 0.971 | 0.578 | 1.07 | 1.06 | 0.924 | 0.365 | 0.0214 |
| primary AML patient cells (S056) | 0.97 | 0.784 | 0.689 | 0.192 | 0.0822 | 0.865 | 0.796 | 0.82 | 0.802 | 0.735 | 0.827 | 0.847 | 0.653 | 0.578 | 0.494 | 0.989 | 0.617 | 0.365 | 0.144 | 0.0627 |
| primary AML patient cells (S009) | 1.04 | 0.839 | 0.697 | 0.62 | 0.213 | 0.994 | 0.961 | 0.994 | 0.936 | 0.934 | 1.03 | 0.917 | 0.89 | 0.555 | 0.213 | 0.987 | 0.865 | 0.799 | 0.381 | 0.252 |
| primary AML patient cells (S019) | 0.986 | 1 | 0.906 | 0.766 | 0.357 | 1.14 | 1.34 | 1.11 | 1.1 | 0.869 | 1.02 | 1.34 | 0.821 | 1 | 0.391 | 1.17 | 1.1 | 0.76 | 0.899 | 0.315 |
| primary FL patient cells (S087) | 0.946 | 0.956 | 0.881 | 0.769 | 0.368 | 1.07 | 1.05 | 1 | 0.896 | 0.851 | 0.905 | 0.986 | 0.868 | 0.846 | 0.619 | 1.02 | 1.01 | 0.936 | 0.846 | 0.597 |
| primary AML patient cells (S012) | 1.11 | 0.967 | 0.965 | 0.445 | 0.0519 | 0.966 | 1.04 | 0.995 | 1.02 | 0.985 | 0.992 | 0.921 | 0.981 | 0.958 | 0.391 | 1.04 | 0.933 | 0.852 | 0.688 | 0.0799 |
| primary CLL patient cells (S043) | 0.822 | 0.865 | 0.784 | 0.728 | 0.533 | 0.911 | 0.919 | 0.849 | 0.905 | 0.632 | 1 | 1.01 | 0.985 | 1.03 | 0.594 | 1.07 | 0.958 | 0.905 | 0.62 | 0.116 |
| primary MCL patient cells (S068) | 0.883 | 0.815 | 0.478 | 0.269 | 0.181 | 0.94 | 0.934 | 0.846 | 0.835 | 0.37 | 1.1 | 1.25 | 1.16 | 1.45 | 0.982 | 1.1 | 1.04 | 0.459 | 0.167 | 0.121 |
